Measurements from patent publication US20090062255A1, “TUMOR-TARGETING EVALUATION METHODOLOGY AND COMPOUNDS RELATED THERETO” (THALLION PHARMACEUTICALS INC., priority 2007, published 2009).
Where “and” joins values, the source holds several entries; their conditions need not be identical. Equal entries are not always repeated. Where two headings read alike, the source gives them in different places.

Tests used:
[1] = biological target: T1, peripheral benzodiazepine receptor (PBR) (Rattus norvegicus, UniProt P16257); test: PBR radioligand binding assay ([3H]PK-11195, rat heart); conditions: for inhibition at 1 µM: 1 μM compound, 1% DMSO, read-out: Percentage of inhibition or binding activity, PBR (1 μM)
T1 construct: CBR and PBR were obtained from rat brain and heart membrane-fractions, respectively; from tissue; host or cells: Wistar rat heart membranes
Source text: (§1) The procedures used were based on known assays: ACAT (from rat; Ref: Largis et al (1989), J. Lipid. Res., vol 30, 681-689), COX-2 (human; Ref: Riendeau et al (1997), Can. J. Physiol. Pharmacol., vol 75, 1088-1095 and Warner et al (1999), Pro. Natl. Acad. Sci. USA, vol 96, 7563-7568), 5-LO (human; Ref: Carter et al (1991), J. Pharmacol. Exp. Ther., vol 256, no 3, 929-937, and Safayhi et al (2000), Planta Medica, vol 66, 110-113), PBR (from rat; Le Fur et al (1983), Life Sci. USA, vol 33, 449-457), CysLT1 (human; Martin et al (2001), Biochem. Pharmacol., vol 62, no 9, 1193-1200) and CBR (from rat; Damm et al (1978), Res. Comm. Chem. Pathol. Pharmacol., vol 22, 597-600 and Speth et al (1979), Life Sci., vol 24, 351-357).
(§2) Binding assays were done for each of Compounds 1-12 and 46 using ACAT, COX-2, 5-LO, PBR and CysLT1 enzymes. The procedures used are based on the respective references mentioned above and the conditions are summarized in Tables 16 (enzyme assays) and 17 (radioligand receptor assays).
(§3) Binding Assays were done at constant concentration of the compound, in 1% DMSO as vehicle, and are specified below each enzyme/receptor type in Table 18. The results are expressed in Table 18 as percentage inhibition. Significance was obtained when a result was ≧50% binding or inhibition (underlined).
As Compound 1 was isolated from structural prediction through genetic analysis and activity identified through in vitro cytotoxic assays, its molecular target(s) were unknown at the time of discovery. Based on the structural characteristics of ECO-4601, we first investigated its binding affinity to the central (GABAA; CBR;) and peripheral (PBR) benzodiazepine receptors. The effect of ECO-4601 on CBR (GABAA) and PBR was initially evaluated in a radioligand-binding assay at MDS Pharma Services (Taipei, Tawain). CBR and PBR were obtained from rat brain and heart membrane-fractions, respectively. Displacement assays were done in the presence of 1 nM [^3H]-Flunitrazepam (CBR; GABAA) or 0.3 nM of [^3H]-PK11195 (PBR). ECO-4601 was tested at 0.01, 0.1, 0.5, 1, 5 and 10 μM. Non-specific binding was estimated in the presence of 10 μM diazepam (CBR) or 100 μM dipyrimadole (PBR) and assays were performed according to previous described methods (Damm et al Res Commun Chem Pathol Pharmacol 22, pp 597-600; Le Fur et al (1983) Life Science 33, pp 449-57). […] This contrats with current specific PBR ligands, which bind the PBR with nanomolar affinity yet their effect on cell proliferation, is in the micromolar range.

[2] = system: Acyl CoA-Cholesterol Acyltransferase (ACAT); test: ACAT enzyme assay; type: biochemical, rat; conditions: 10 μM compound, 1% DMSO
Source text: Acyl CoA-Cholesterol Acyltransferase (ACAT) converts cholesterol to cholesteryl esters and is involved in the development of artherioscerosis.
as §1, §2, §3

[3] = for MTD: mouse, in vivo
[4] = biological target: T2, Cyclooxygenase-2 (COX-2) (Homo sapiens, UniProt P35354); test: COX-2 enzyme assay; type: biochemical; conditions: 4 μM compound, 1% DMSO; read-out: Percentage of inhibition or binding activity, COX-2 (4 μM)
T2 construct: host or cells: insect Sf21 cells
T2 sequence (P35354 18-604): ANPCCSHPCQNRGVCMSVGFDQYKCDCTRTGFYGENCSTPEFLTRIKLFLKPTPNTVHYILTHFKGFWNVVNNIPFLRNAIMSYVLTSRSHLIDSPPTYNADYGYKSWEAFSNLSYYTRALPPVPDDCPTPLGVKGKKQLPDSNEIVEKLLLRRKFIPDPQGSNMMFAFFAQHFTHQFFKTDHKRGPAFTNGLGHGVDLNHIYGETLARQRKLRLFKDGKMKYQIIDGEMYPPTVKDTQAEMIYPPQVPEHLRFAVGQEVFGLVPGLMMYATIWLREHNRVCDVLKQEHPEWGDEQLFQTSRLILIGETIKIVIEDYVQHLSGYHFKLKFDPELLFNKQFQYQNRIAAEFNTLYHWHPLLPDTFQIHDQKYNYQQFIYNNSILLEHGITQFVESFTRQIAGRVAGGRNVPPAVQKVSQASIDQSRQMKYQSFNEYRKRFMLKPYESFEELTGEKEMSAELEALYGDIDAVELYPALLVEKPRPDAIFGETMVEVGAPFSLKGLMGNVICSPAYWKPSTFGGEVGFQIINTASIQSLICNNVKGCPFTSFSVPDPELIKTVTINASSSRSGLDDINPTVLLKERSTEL
Source text: Cyclooxygenase-2 (COX-2) enzyme is made only in response to injury or infection. It produces prostaglandins involved in inflammation and the immune response. Elevated levels of COX-2 in the body have been linked to cancer.
as §1, §2, §3

[5] = system: HT-29 (colorectal carcinoma); test: In vitro cytotoxic activity (GI50, propidium iodide), HT-29; type: cell-based; conditions: for GI50: Homo sapiens, HT-29, 96 h, method (1), 96 hours
Method: (§4) Procedures used for each series of tests are described below.
(§5) Compounds were dissolved at 10 mM in DMSO. […] The following day, propidium iodide was added to one of the two plates and fluorescence measured (Tz). […] Each compound was tested at each concentration and in triplicates. The equivalent cell number was determined after adding propidium iodide by measuring the signal by fluorescence (C for control).

[6] = system: MDA-MB-231 (mammary gland adenocarcinoma); test: In vitro cytotoxic activity (GI50, propidium iodide), MDA-MB-231; type: cell-based, human; conditions: Homo sapiens, MDA-MB-231, 96 h, method (1), 96 hours
Method: as §4, §5

[7] = system: PC-3 (prostate adenocarcinoma); test: In vitro cytotoxic activity (GI50, propidium iodide), PC-3; type: cell-based, human; conditions: Homo sapiens, 96 h, method (1)
Method: as §4, §5

[8] = system: SF268 (CNS); test: In vitro cytotoxic activity (GI50, propidium iodide), SF-268; type: cell-based; conditions: Homo sapiens, SF-268, 96 h, method (1), 96 hours
Method: as §4, §5

CC(C)=CCC/C(C)=C/CC/C(C)=C/CN1C(=O)c2cccc(O)c2Nc2c(O)cc(O)cc21 [Compound 1, 10-farnesyl-4,6,8-trihydroxy-5,10-dihydrodibenzo[b,e][1,4]diazepin-11-one]
inhibition at 1 µM [1]: 80%
IC50 ([1]; multiple dilutions, 0.3 nM [3H]-PK11195, rat heart, read-out: PBR IC50 (binding affinity)): 0.291 µM and ~0.3 µM
Ki ([1]; multiple dilutions, read-out: PBR inhibition constant (Ki)): 0.257 µM
Percentage of inhibition or binding activity, ACAT (10 μM) [2]: 90%
MTD ([3]; iv): 150 mg/kg
inhibition at 4 µM [4]: 96%

CC(C)=CCC/C(C)=C/CC/C(C)=C/CN1C(=O)c2cccc(O)c2N(C)c2c(O)cc(O)cc21 [Compound 2, 10-farnesyl-4,6,8-trihydroxy-5-methyl-5,10-dihydro-dibenzo[b,e][1,4]diazepin-11-one]
increase of cytotoxic activity compared to parent Compound 1 ([5]; HT-29 cell line): fifty fold increase
inhibition at 1 µM [1]: 65%
Percentage of inhibition or binding activity, ACAT (10 μM) [2]: 51%
weight losses ([3]; for several days post-injection): about 7%
MTD ([3]; ip): ≥ 50 mg/kg
inhibition at 4 µM [4]: 92%

CC(C)=CCC/C(C)=C/CC/C(C)=C/CN1C(=O)c2cccc(O)c2N(Cc2ccccc2)c2c(O)cc(O)cc21 [Compound 3, 5-benzyl-10-farnesyl-4,6,8-trihydroxy-5,10-dihydro-dibenzo[b,e][1,4]diazepin-11-one]
inhibition at 1 µM [1]: 11%
Percentage of inhibition or binding activity, ACAT (10 μM) [2]: 63%
inhibition at 4 µM [4]: 76%

COc1cccc2c1Nc1c(O)cc(O)cc1N(C/C=C(\C)CC/C=C(\C)CCC=C(C)C)C2=O [Compound 4, 10-farnesyl-6,8-dihydroxy-4-methoxy-5,10-dihydro-dibenzo[b,e][1,4]diazepin-11-one]
inhibition at 1 µM [1]: 92%
Percentage of inhibition or binding activity, ACAT (10 μM) [2]: 65%
inhibition at 4 µM [4]: 78%

COc1cc(O)cc2c1Nc1c(O)cccc1C(=O)N2C/C=C(\C)CC/C=C(\C)CCC=C(C)C [Compound 5, 10-farnesyl-4,8-dihydroxy-6-methoxy-5,10-dihydro-dibenzo[b,e][1,4]diazepin-11-one]
inhibition at 1 µM [1]: 68%
Percentage of inhibition or binding activity, ACAT (10 μM) [2]: 60%
inhibition at 4 µM [4]: 63%

COc1cc(OC)c2c(c1)N(C/C=C(\C)CC/C=C(\C)CCC=C(C)C)C(=O)c1cccc(O)c1N2 [Compound 6, 10-farnesyl-4-hydroxy-6,8-dimethoxy-5,10-dihydro-dibenzo[b,e][1,4]diazepin-11-one]
inhibition at 1 µM [1]: 75%
Percentage of inhibition or binding activity, ACAT (10 μM) [2]: 54%
inhibition at 4 µM [4]: 45%

COc1cccc2c1Nc1c(OC)cc(O)cc1N(CC=C(C)CCC=C(C)CCC=C(C)C)C2=O [Compound 7, 10-farnesyl-8-hydroxy-4,6-dimethoxy-5,10-dihydro-dibenzo[b,e][1,4]diazepin-11-one]
inhibition at 1 µM [1]: 65%
Percentage of inhibition or binding activity, ACAT (10 μM) [2]: 95%
inhibition at 4 µM [4]: 26%

COc1cc(OC)c2c(c1)N(CC=C(C)CCC=C(C)CCC=C(C)C)C(=O)c1cccc(OC)c1N2 [Compound 8, 10-farnesyl-4,6,8-trimethoxy-5,10-dihydro-dibenzo[b,e][1,4]diazepin-11-one]
inhibition at 1 µM [1]: 55%
Percentage of inhibition or binding activity, ACAT (10 μM) [2]: 40%
inhibition at 4 µM [4]: 19%

CC(=O)Oc1cc(OC(C)=O)c2c(c1)N(CC=C(C)CCC=C(C)CCC=C(C)C)C(=O)c1cccc(O)c1N2 [Compound 9, 6,8-diacetoxy-10-farnesyl-4-hydroxy-5,10-dihydro-dibenzo[b,e][1,4]diazepin-11-one]
GI50 [5]: 12.6 µM
inhibition at 1 µM [1]: 32%
GI50 [6]: 2.48 µM
Percentage of inhibition or binding activity, ACAT (10 μM) [2]: 77%
GI50 [7]: 1.44 µM
GI50 [8]: 1.88 µM
inhibition at 4 µM [4]: 44%

CC(=O)Oc1cccc2c1Nc1c(OC(C)=O)cc(O)cc1N(CC=C(C)CCC=C(C)CCC=C(C)C)C2=O [Compound 10, 4,6-diacetoxy-10-farnesyl-8-hydroxy-5,10-dihydro-dibenzo[b,e][1,4]diazepin-11-one]
GI50 [5]: 13 µM
inhibition at 1 µM [1]: 86%
GI50 [6]: 1.55 µM
Percentage of inhibition or binding activity, ACAT (10 μM) [2]: 90%
GI50 [7]: 1.35 µM
GI50 [8]: 2.02 µM
inhibition at 4 µM [4]: 45%

CC(=O)Oc1cc(O)c2c(c1)N(CC=C(C)CCC=C(C)CCC=C(C)C)C(=O)c1cccc(OC(C)=O)c1N2 [Compound 11, 4,8-diacetoxy-10-farnesyl-6-hydroxy-5,10-dihydro-dibenzo[b,e][1,4]diazepin-11-one]
GI50 [5]: 16 µM
inhibition at 1 µM [1]: 39%
GI50 [6]: 7.72 µM
Percentage of inhibition or binding activity, ACAT (10 μM) [2]: 71%
GI50 [7]: 5.35 µM
GI50 [8]: 5.79 µM
inhibition at 4 µM [4]: 57%

CC(=O)Oc1cc(OC(C)=O)c2c(c1)N(CC=C(C)CCC=C(C)CCC=C(C)C)C(=O)c1cccc(OC(C)=O)c1N2 [Compound 12, 4,6,8-triacetoxy-10-farnesyl-5,10-dihydro-dibenzo[b,e][1,4]diazepin-11-one]
inhibition at 1 µM [1]: 39%
Percentage of inhibition or binding activity, ACAT (10 μM) [2]: 83%
inhibition at 4 µM [4]: 30%

CC(C)CCCC(C)CCCC(C)CCN1C(=O)c2cccc(O)c2Nc2c(O)cc(O)cc21 (stereo not shown) [Compound 46, 10-(3,7,11-trimethyldodecyl)-4,6,8-trihydroxy-5,10-dihydro-dibenzo[b,e][1,4]diazepin-11-one]
inhibition at 1 µM [1]: -1%
Percentage of inhibition or binding activity, ACAT (10 μM) [2]: 8%
GI50 [7]: 0.9 µM
inhibition at 4 µM [4]: 95%
